Each structure is given as a SMILES string.

For one data set, the system named is bovine gelatin. The data set is described as follows: Young's Modulus measurement (Instron) of irradiated bovine gelatin strips. As to conditions: bovine gelatin 25% wt, ICG 1 mg/mL, TEOA 90 mM; 810 nm 200 mW LED; 3 and 5 minute irradiations compiled. As to the method: All Young's Modulus values were determined using an Instron equipped with screw side action tensile grips and a load cell rated for max 100 N. Rates of pulling were between 3 mm/minute and 5 mm/minute. The software calculated the Young's Modulus from the force vs. distance/time.
Bovine gelatin sheets were made by heating the gelatin in Dulbecco's buffer to 75° C. for 30 minutes in order to dissolve the dried gelatin and make a viscous solution. Neat TEOA and a concentrated stock solution of ICG in deionized water were added to make the final concentrations: bovine gelatin=25% wt, TEOA=90 mM, and ICG=1 mg/mL. This solution was pipetted hot into a plexiglass mold with a Teflon spacer to form a sheet of the following dimensions: 14 cm×6 cm×1 mm. It was stored overnight in a 4° C. refrigerator to solidify. Twelve 1 cm×6 cm strips were cut from the solidified gel for triplicate analysis of 4 conditions: no irradiation, 3 minute, 5 minute, and 10 minute irradiations. An 810 nm 200 mW LED (Thor Labs) was used for treatment of the gel strip. The LED with a collimator produced a 1 cm×1 cm irradiation area, which was used to treat 1 cm portions of the gelatin strip at a time. For example, an initial irradiation was applied for 3 minutes on 1 cm of the gel, then the gel was shifted 1 cm to a new, untreated portion. […]

Data set [1] can be described thus: Singlet oxygen generation by DPBF decay (UV-Vis), 810 nm LED. Type of data set: physicochemical. From the text:
To evaluate the efficiency of singlet oxygen generation by ICG and an analog (IR-820) in vitro, the singlet oxygen generation was monitored. 1,3-diphenylisobenzofuran (DPBF), a compound that decays in the presence of singlet oxygen, and singlet oxygen sensor green (SOSG), a dye that increases fluorescence in the presence of singlet oxygen, were used as markers to indicate singlet oxygen generation by ICG and IR-820. […] For SOSG analysis, the fluorescence turn-on in H2O and D2O was compared to that observed when riboflavin—an FDA approved dye used in conjunction with UV light to treat keratoconus (corneal expansion)—was usedIn all cases, an increase in fluorescence emission at 525 nm was observed (using a 488nm excitation).

A short description of data set [2]: Singlet oxygen sensor green (SOSG) fluorescence measurements. To be noted: for SOSG fluorescence emission at 525 nm: dye 0.1 mg/mL, 810 nm, 200 mW, 488 nm excitation. The data set is classed as physicochemical. As to the method:
Singlet oxygen sensor green (SOSG) is a common reagent for measuring singlet oxygen generation in aqueous systems. The marker becomes more fluorescent as singlet oxygen is generated. All time measurements were done in triplicate (100 μL aliquots from an irradiated sample). A Molecular Devices Flexstation was used to read out the fluorescence measurements with the excitation/emission at 488/525 nm.
SOSG fluorescence turn on was initially measured using riboflavin as a point of comparison for the efficacy of ICG irradiations. Measurements used a dye concentration of 0.1 mg/mL and the irradiation the parameters (3 mW at 365 nm) used in the FDA approved procedure for keratoconus (corneal expansion). The mixture was stirred during irradiation.
Stocks of the ICG formulations (both H2O and D2O) were made to be 1 mg/mL ICG and 0.01% benzalkonium chloride (BAC). These were diluted to a dye concentration of 0.1 mg/mL for the SOSG tests with no adjustments for the BAC. The sample was irradiated with 810 nm light at 200 mW and stirred throughout the irradiation.

Data set [3] is described as follows: Dye solubility observations. Type of data set: physicochemical. On the procedure: ICG is a NIR-absorbing heptamethine dye that has the potential of generating singlet oxygen upon irradiation and has a λmax ranging from 780-810 nm depending on the context. […] BAC along with other cationic surfactants (alkyl ammonium salts, polyoxyethylene alkyl amines, amide linked alkyl amines, alkyl imidazolines, etc.) aid in the solubility of the dye in aqueous media. […] The standard formulation used in these studies consisted of 0.05 to 5.0 mg/mL ICG and 0.01% to 0.001% BAC in solution. D2O was selected as the solvent to increase the lifetime of singlet oxygen and therefore the crosslinking capability of the species. […] Fluorinated solvents (perfluorohexane, perfluorotripentylamine, etc.) are also of interest due to their ability to dissolve more oxygen and their robust inertness.

Turning to `CC1(C)C(/C=C/C=C/C=C/C=C2\N(CCCCS(=O)(=O)O)c3ccc4ccccc4c3C2(C)C)=[N+](CCCCS(=O)(=O)[O-])c2ccc3ccccc3c21` [ICG, indocyanine green], in the data set with bovine gelatin, the “increase of the Young's Modulus, irradiated vs non-irradiated sample” value came out at 26%. For the same compound, the “ICG and DPBF signal (UV-Vis) upon irradiation” value in data set [1] (810 nm, 375 mW LED, in water) is listed as “decrease”. Also, the “singlet oxygen generation (DPBF analysis)” value in data set [1] (in H2O or D2O) is “singlet oxygen generation was observed”. Further, the results for the “SOSG fluorescence emission at 525 nm” value in data set [2] (D2O) and in data set [2] (H2O) were “large increase in fluorescence activation” and “increase”, respectively. Moreover, the “singlet oxygen generation (SOSG turn-on) relative to riboflavin” value in data set [2] (only in the presence of D2O) is reported as “efficient enough to compete with the turn-on observed in the presence of riboflavin”. The “solubility in aqueous media” value in data set [3] (BAC compared with sodium iodide) is “greater increases in solubility”; in data set [3] (with BAC and other cationic surfactant additives) it was “enhanced solubility”.

These data come from patent US20230173071A1, “TREATMENT OF MYOPIA AND OTHER OCULAR CONDITIONS USING SINGLET OXYGEN GENERATED FROM DYES ACTIVATED BY NEAR-INFRARED LIGHT” (California Institute of Technology, priority 2018, published 2023).
